Results taken from US4650811A, “Ethenylphenol-indoles having antiarythmic utility” (Roussel Uclaf, priority 1984, dated 1987).

Experiments:
[1] = target: T1, β2 - adrenergic receptor (Rattus norvegicus, UniProt P10608); test: β2 - adrenergic receptor affinity (3H dihydroalprenolol displacement, rat cerebelli); assay type: binding; conditions: ARL=100 CD/CX relative to propranolol; 3H dihydroalprenolol 10^-9 M, 37° C., 10 minutes
T1 construct: The cerebelli removed from the brains of male rats; from tissue; host or cells: rat cerebellum, membrane preparation
Method: The cerebelli removed from the brains of male rats weighing on the average 150 g were homogenized in 90 ml of 0.32 M sucrose and after centrifuging the homogenized mixture at 1,000 g for 20 minutes at 0° C., the supernatant was centrifuged at 30,000 g for 15 minutes at 0° C. to +4° C. The residue was suspended in 120 ml of Tris HCl 50 mM buffer pH 7.7, and centrifuged at 30,000 g for 15 minutes at 0° to +4° C. The new residue obtained was suspended in 480 ml of Krebs Tris HCl buffer, pH 7.7. 2 ml of the suspension were then incubated at 37° C. for 10 minutes in the presence of 3H dihydroalprenolol at a concentration of 10^-9 M:
(ii) with increasing concentrations of the product under test
(iii) to determine the non-specific fixation, with non-radio-active propranolol at a concentration of 10^-5 M. The incubated suspensions were filtered on Whatman GF/C and the filters were washed three times with 5 ml of Krebs Tris HCl buffer pH 7.7 at 0° C.
The radio-activity of the filters was measured by liquid scintillation. The affinity of the test product for β2 - adrenergic receptors was given relative to propranolol as reference product.
CD=concentration of propranolol inhibiting 50% of the specific fixation of ^3 H dihydroalprenolol:
CX=concentration of the product under test inhibiting 50% of the specific fixation of the ^3 H dihydroalprenolol.

[2] = target: T2, β1 - adrenergic receptor (Rattus norvegicus, UniProt P18090); test: β1 - adrenergic receptor affinity (3H dihydroalprenolol displacement, rat cortices); assay type: binding; conditions: ARL=100 CD/CX relative to propranolol; 3H dihydroalprenolol 10^-9 M, 37° C., 10 minutes
T2 construct: 10 cortices removed from the brains of rats; from tissue; host or cells: rat brain cortex, membrane preparation
Method: 10 cortices removed from the brains of rats weighing on the average 150 g were homogenized in 90 ml of 0.32 M sucrose and after centrifuging the homogenized mixture at 1,000 g for 20 minutes at 0° C., the supernatant was centrifugated at 30,000 g for 15 minutes at 0° C. to +4° C. The residue was suspended in 120 ml of Tris HCl 50 mM buffer pH 7.7 and centrifuged at 30,000 g for 15 minutes at 0° C. to +4° C. The new residue obtained was suspended in 480 ml of Krebs Tris HCl 50 mM buffer, 7.7 pH. Then, 2 ml of the suspension were incubated for 10 minutes at 37° C. in the presence of ^3 H dihydroalprenolol at a concentration of 10^-9 M:
(§1) (ii) with increasing concentrations of the product under test, or
(iii) to determine the non-specific fixation, with non-radioactive propranolol at a concentration of 10^-5 M.
The incubated suspensions were filtered on Whatman GF/C and the filters were washed three times with 5 ml of Krebs Tris HCl buffer pH 7.7 at 0° C. The radio-activity of the filters was measured by liquid scintillation. The affinity of the product for the adrenergic receptors was given relative to propranolol as reference product,
CD=concentration of propranolol inhibiting 50% of the specific fixation of the ^3 H dihydroalprenolol: CX=concentration of the product under test inhibiting 50% of the specific fixation of the ^3 H dihydroalprenolol.

[3] = tested on: Rat caudal arteries; test: Anti-calcic activity in vitro: inhibition of K+-depolarized, Ca2+-induced contraction of rat caudal arteries; conditions: rat caudal artery, depolarized with 100 mM K+, Ca2+ 0.1 to 3.0 mM, 37° C.
Method: Rat caudal arteries were cut into a spiral and were attached to tension sensors and were kept in tanks of […] of Krebs buffer-sodium bicarbonate (NaCl: 120.8 mM, KCl: 5.9 mM, MgCl2 : 1.2 mM, NaH2 PO4 : 1.2 mM, NaHCO3 : 15.5 mM, glucose: 12.6 mM) at 37° C. gassed with a mixture of O2 : 95% - CO2 : 5%. The preparations were depolarized with a buffer solution with a concentration of 100 mM in K^+ ions (NaCl: 26.7 mM, KCl: 100 mM, MgCl2 : 1.2 mM, NaH2 PO4 : 1.2 mM, NaHCO3 : 15.5 mM, glucose: 12.6 mM). Calcium chloride was added in a volume of 250 μ1 to obtain a range of increasing concentrations of Ca^2+ ions from 0.1 to 3.0 mM. The contractions of the arteries were recorded and a control range was established in this way. The operation was repeated every 15 minutes with the Ca^2+ range of ions and the preparation was washed four times after each range.
When a stable response had been obtained, the operation with the range of Ca^2+ ions was carried out in the presence of different concentrations of the product under test until a stable response was obtained. The contractions of the arteries depend on the entry of the Ca^2+ ions into the cells of the smooth muscles and are caused by the depolarization of the smooth muscle by the K^+ ions and by the action of the noradrenaline liberated at the presynaptic level. By repeating the operation with the arteries denervated by the action of 6-OH dopamine, the specific action due to the noradrenaline was suppressed.

[4] = tested on: mice; test: Acute toxicity after oral administration to mice; assay type: in vivo
Method: The lethal doses LD0 for the different test compounds were evaluated after oral administration to mice and the maximum dose not causing any mortality in 8 days was called LD0.

[5] = tested on: α2 - adrenergic receptor; test: α2 - adrenergic receptor affinity (3H rauwolscine displacement, rat cortices); assay type: binding; conditions: ARL=100 CD/CX relative to phentolamine, 25° C., 45 minutes
Method: 10 cortices removed from the brains of male rats weighing on the average […] were homogenized in 90 ml of 0.32 M sucrose and after centrifuging the homogenized mixture at 1,000 g for 10 minutes at 0° C., the supernatant was centrifuged at 30,000 g for 10 minutes at 0° C. to +4° C. The residue was suspended in 240 ml of Tris HCl 50 mM buffer, pH 7.7 and centrifuged at 30,000 g for 15 minutes at 0° to +4° C. The new residue obtained was suspended in 480 ml of NaKPO4 50 mM buffer, pH 7.4. Then, 2 ml of suspension were incubated for 45 minutes at 25° C. in the presence of ^3 H rauwolscine at a concentration of […]:
as §1
(iii) to determine the non-specific fixation, with non-radioactive phentolamine at a concentration of 10^-5 M.
The incubated suspensions were filtered on Whatman GF/C and the filters were washed three times with 5 ml of NaKPO4 buffer, pH 7.4, at 0° C. The radio-activity of the filters was measured by liquid scintillation. The affinity of the product under test for the α2 - adrenergic receptors were given relative to phentolamine as reference product. CD=concentration of phentolamine inhibiting 50% of the specific fixation of ^3 H rauwolscine:
CX=concentration of the product under test inhibiting 50% of the specific fixation of ^3 H rauwolscine.

[6] = tested on: arterial pressure of male rats of Wistar strain; test: Hypotensive activity (carotid arterial pressure in anesthetized rats); assay type: in vivo, rat (Wistar); conditions: 1 mg/Kg, intravenous, vs initial control arterial pressure
Method: The hypotensive activity was studied on male rats of Wistar strain weighing about 300 g and anesthetized with 50 mg/Kg by intravenous route of sodium pentobarbital. The product tested was administered by intravenous route in the jugular vein and the pressure in the carotid artery was measured before and after administration of the product tested. The following table reports the variations expressed in percentage of the arterial pressure after administration of the product tested by comparison with the initial control arterial pressure.

[7] = tested on: disorders of the cardiac rhythm (aconitine) in rats; test: Anti-arrhythmic activity in rats (aconitine-induced disorders of the cardiac rhythm); assay type: in vivo, rat; conditions: intravenous, aconitine 10 μg/min five minutes after product, in comparison with controls
Method: Male rats weighing 300-350 g anesthetized by intraperitoneal route with 1.20 g/Kg of urethane were tracheotomized and submitted to artifical respiration (40-50 insufflations of 3 ml/minute). Needles were implanted sub-cutaneously to record the electro-cardiogram of the rats on the signal in derivation DII. The products under test were administered by intravenous route.
Five minutes after the product was administered, the jugular vein of the rats was perfused with 10 μg/min. of an aconitine solution and the time of appearance of disorders of the cardiac rhythm was noted. The results were expressed in percentage of the extension of the time of appearance of disorders of the cardiac rhythm in comparison with controls and as a function of the dose of the product under test.

T1 sequence (P10608 whole entry): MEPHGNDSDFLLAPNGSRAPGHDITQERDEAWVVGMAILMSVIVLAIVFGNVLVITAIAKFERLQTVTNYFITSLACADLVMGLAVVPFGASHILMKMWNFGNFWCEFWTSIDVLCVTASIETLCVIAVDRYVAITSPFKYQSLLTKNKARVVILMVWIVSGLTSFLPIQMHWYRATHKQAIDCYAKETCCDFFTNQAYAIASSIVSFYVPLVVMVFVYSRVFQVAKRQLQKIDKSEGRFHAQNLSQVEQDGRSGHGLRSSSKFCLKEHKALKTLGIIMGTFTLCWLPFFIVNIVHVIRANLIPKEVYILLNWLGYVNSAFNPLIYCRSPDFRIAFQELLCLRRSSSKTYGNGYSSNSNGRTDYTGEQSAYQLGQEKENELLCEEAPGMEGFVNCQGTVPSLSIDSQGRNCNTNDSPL
T2 sequence (P18090 whole entry): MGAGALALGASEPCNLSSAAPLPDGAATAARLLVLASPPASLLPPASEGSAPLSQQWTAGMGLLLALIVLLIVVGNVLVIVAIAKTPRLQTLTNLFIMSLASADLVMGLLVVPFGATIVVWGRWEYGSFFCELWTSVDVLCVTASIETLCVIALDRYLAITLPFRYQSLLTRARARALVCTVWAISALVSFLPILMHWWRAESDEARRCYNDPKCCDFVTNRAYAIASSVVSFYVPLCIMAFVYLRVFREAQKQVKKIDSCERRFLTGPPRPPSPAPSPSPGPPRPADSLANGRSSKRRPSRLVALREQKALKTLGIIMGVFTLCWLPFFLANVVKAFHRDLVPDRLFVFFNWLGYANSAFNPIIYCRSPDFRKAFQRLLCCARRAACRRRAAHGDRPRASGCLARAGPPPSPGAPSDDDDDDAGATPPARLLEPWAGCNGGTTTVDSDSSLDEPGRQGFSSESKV

SMILES | ARL (relative affinity) [1] [%] | ARL (relative affinity) [2] [%] | IC50 [3] [µM] | LD0 (maximum dose not causing any mortality in 8 days) [4] [mg/kg] | ARL (relative affinity) [5] [%] | % Variation of the arterial pressure ([6]; 1 min. after administration) [%] | % Variation of the arterial pressure ([6]; 5 min. after administration) [%] | % Variation of the arterial pressure ([6]; 10 min. after administration) [%] | % Variation of the arterial pressure ([6]; 30 min. after administration) [%] | Percentage of extension of time of appearance of disorders of the cardiac rhythm ([7]; 5 mg/Kg) [%] | Percentage of extension of time of appearance of disorders of the cardiac rhythm ([7]; 10 mg/Kg) [%]
CC(C)(C)NCC(O)COc1ccc(/C=C/c2cccc3[nH]ccc23)cc1 (stereo not drawn) [Example 3, 1-[(1,1-dimethylethyl)-amino]-3-[4-[2-(1H-indol-4-yl)-ethenyl]-phenoxy]-2-propanol] | 0.1 | 0.8 | 0.6 | > 100 | 0.7 |  |  |  |  |  | 
CC(C)(C)NCC(O)COc1ccccc1/C=C/c1cccc2[nH]ccc12 (stereo not drawn) [Example 2, 1-[(1,1-dimethylethyl)-amino]-3-[2-[2-(1H-indol-4-yl)-ethenyl]-phenoxy]-2-propanol] | 172 | 198 | 1.2 | > 100 |  | -17 | -10 | -10 | -14 | 30 | 110
CC(C)(C)NCC(O)COc1ccc(/C=C/c2cccc3c2CC(=O)N3)cc1 (stereo not drawn) [Example 5, 1,3-dihydro-4-[2-[4-[3-[(1,1-dimethylethyl)-amino]-2-hydroxypropoxy]-phenyl]-ethenyl]-2H-indol-2-one] |  |  | 2.5 | > 100 |  |  |  |  |  |  | 
CC(C)(C)NCCCOc1ccccc1CCc1cccc2[nH]ccc12 [Example 12, N-(1,1-dimethylethyl)-3-[2-[2-(1H-indol-4-yl)-ethyl]-phenoxy]-propanamine] |  |  | 0.3 |  |  |  |  |  |  |  | 
CC(C)(C)NCCOc1ccccc1/C=C/c1cccc2[nH]ccc12 [Example 11, N-(1,1-dimethylethyl)-2-[2-[2-(1H-indol-4-yl)-ethenyl]-phenoxy]-ethanamine (trans E)] |  |  |  | 200 |  |  |  |  |  | 41 | 
CC(C)(C)NCC(O)COc1ccccc1CCc1cccc2[nH]ccc12 (stereo not drawn) [Example 8, 1-[(1,1-dimethylethyl)-amino]-3-[2-[2-(1H-indol-4-yl)-ethyl]-phenoxy]-2-propanol] |  |  | 1.5 | > 400 |  |  |  |  |  | 162 | 
CC(C)NCC(O)COc1ccccc1/C=C/c1cccc2[nH]ccc12 (stereo not drawn) [Example 1, 1-[2-[2-(1H-indol-4-yl)-ethenyl]-phenoxy]-3-[isopropyl-amino]-2-propanol] | 18 | 92.5 | 4 | > 100 | 0.1 | -11 | -11 | -12 | -13 |  | 
CC(C)NCC(O)COc1ccc(/C=C/c2cccc3[nH]ccc23)cc1 (stereo not drawn) [Example 4] | 0.03 | 1.0 | 3.5 | 60 | 0.0 |  |  |  |  |  | 
CC(C)(C)NCCCOc1ccccc1/C=C/c1cccc2[nH]ccc12 [Example 6, N-(1,1-dimethylethyl)-3-[2-[2-(1H-indol-4-yl)-ethenyl]-phenoxy]-propanamine] |  |  | 2 | > 400 |  |  |  |  |  | 49 | 
CC(C)(C)NCC(O)COc1ccccc1/C=C/c1cccc2c1CC(=O)N2 (stereo not drawn) [Example 9, 1,3-dihydro-4-[2-[2-[3-[(1,1-dimethylethyl)-amino]-2-hydroxypropoxy]-phenyl]-ethenyl]-2H-indol-2-one] |  |  | 1.4 |  |  |  |  |  |  | 167 | 
